Source: patent US20230234942A1, “COMPOUNDS FOR TREATING HUNTINGTON'S DISEASE” (PTC Therapeutics, Inc., priority 2020, published 2023)

System: Endogenous Huntingtin Protein
Test: Endogenous Huntingtin Protein Assay (ELISA-based MSD electrochemiluminescence)
Format: cell-based
Settings: Table 2; MSD plates coated with MW1 (expanded polyglutamine) or MAB2166 capture antibody; "inactive" = result above the detection limit of the assay
Method in brief: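 Endogenous huntingtin measured on MSD plates coated with MW1 (polyglutamine-expanded) or MAB2166 capture antibody; lysates bound overnight at 4 °C. Signal developed with #56565 rabbit monoclonal and goat anti-rabbit SULFO-TAG (0.25 µg/mL, 1 h RT each), electrochemiluminescence read on SI 6000.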

| Compound | IC50 [µM] | IC50 (nM) |
| --- | --- | --- |
| OC[C@@H]1CN(c2ncc(-c3ccc(-n4nccn4)cc3O)nn2)CCN1 [Cpd 45, 2-{3-[(3S)-3-(hydroxymethyl)piperazin-1-yl]-1,2,4-triazin-6-yl}-5-(2H-1,2,3-triazol-2-yl)phenol] | 0.142 | – |
| CCN1CCN(c2ncc(-c3ccc(-c4cc(F)c5nc(C)cn5c4)cc3O)nn2)C[C@H]1C [Cpd 89, 2-{3-[(3R)-4-ethyl-3-methylpiperazin-1-yl]-1,2,4-triazin-6-yl}-5-(8-fluoro-2-methylimidazo[1,2-a]pyridin-6-yl)phenol] | 0.0067 | – |
| Oc1cc(-c2cn[nH]c2)ccc1-c1cnc(N2CC3CCC(C2)N3)nn1 [Cpd 135, 2-[3-(3,8-diazabicyclo[3.2.1]octan-3-yl)-1,2,4-triazin-6-yl]-5-(1H-pyrazol-4-yl)phenol] | 0.185 | – |
| C[C@@H]1CN(c2ncc(-c3ccc(-c4ccc5nc(C(F)(F)F)cn5n4)cc3O)nn2)C[C@H](C)N1 [Cpd 118, 2-{3-[(3R,5S)-3,5-dimethylpiperazin-1-yl]-1,2,4-triazin-6-yl)-5-[2-(trifluoromethyl)imidazo[1,2-b]pyridazin-6-yl]phenol] | – | inactive |
| Cc1cn2nc(-c3ccc(-c4cnc(N5C[C@@H](C)N[C@@H](C)C5)nn4)c(O)c3)ccc2n1 [Cpd 75, 2-{3-[(3R,5S)-3,5-dimethylpiperazin-1-yl]-1,2,4-triazin-6-yl}-5-(2-methylimidazo[1,2-b]pyridazin-6-yl)phenol] | 0.0043 | – |
| Cc1cc(C)n2nc(-c3ccc(-c4cnc(N5C[C@@H](C)N[C@@H](C)C5)nn4)c(O)c3)nc2n1 [Cpd 117, 2-{3-[(3R,5S)-3,5-dimethylpiperazin-1-yl]-1,2,4-triazin-6-yl}-5-(5,7-dimethyl[1,2,4]triazolo[1,5-a]pyrimidin-2-yl)phenol] | – | inactive |
| CC(C)[C@H]1CN(c2ncc(-c3ccc(-c4ccc5nccn5c4)cc3O)nn2)CCN1 [Cpd 114, 5-(imidazo[1,2-a]pyridin-6-yl)-2-{3-[(3S)-3-(propan-2-yl)piperazin-1-yl]-1,2,4-triazin-6-yl}phenol] | 0.0544 | – |
| Cc1cn2cc(-c3ccc(-c4cnc(N5C[C@@H](C)N[C@@H](C)C5)nn4)c(O)c3)cc(C#N)c2n1 [Cpd 87, 6-(4-{3-[(3R,5S)-3,5-dimethylpiperazin-1-yl]-1,2,4-triazin-6-yl}-3-hydroxyphenyl)-2-methylimidazo[1,2-a]pyridine-8-carbonitrile] | 0.0064 | – |
| Cc1nc2ccc(-c3ccc(-c4cnc(N5CCN[C@@H](C(C)C)C5)nn4)c(O)c3)cn2n1 [Cpd 85, 5-(2-methyl[1,2,4]triazolo[1,5-a]pyridin-6-yl)-2-{3-[(3S)-3-(propan-2-yl)piperazin-1-yl]-1,2,4-triazin-6-yl}phenol] | 0.006 | – |
| Cc1cn2cc(-c3ccc(-c4cnc(N5C[C@@H](C)N[C@@H](C)C5)nn4)c(O)c3)cc(F)c2n1 [Cpd 66, 2-{3-[(3R,5S)-3,5-dimethylpiperazin-1-yl]-1,2,4-triazin-6-yl]-5-(8-fluoro-2-methylimidazo[1,2-a]pyridin-6-yl)phenol] | 0.0037 | – |
| Oc1cc(-c2cn[nH]c2)ccc1-c1cnc(N2CCNC3(CCC3)C2)nn1 [Cpd 50, 2-[3-(5,8-diazaspiro[3.5]nonan-8-yl)-1,2,4-triazin-6-yl]-5-(1H-pyrazol-4-yl)phenol] | 0.312 | – |
| CC(C)[C@H]1CN(c2ncc(-c3ccc(-n4nccn4)cc3O)nn2)CCN1 [Cpd 154, 2-{3-[(3S)-3-(propan-2-yl)piperazin-1-yl]-1,2,4-triazin-6-yl}-5-(2H-1,2,3-triazol-2-yl)phenol] | 0.0187 | – |
| Cn1cc(-c2ccc(-c3cnc(N4CCN[C@@H](C5CC5)C4)nn3)c(O)c2)cn1 [Cpd 12, 2-{3-[(3S)-3-cyclopropylpiperazin-1-yl]-1,2,4-triazin-6-yl}-5-(1-methyl-1H-pyrazol-4-yl)phenol] | 0.0109 | – |
| 2-{3-[(3S,5R)-3-tert-butyl-5-methylpiperazin-1-yl]-1,2,4-triazin-6-yl}-5-(1,2,4-thiadiazol-3-yl)phenol [Cpd 254] | 0.556 | – |

Further lines, results first:

| IC50 [µM] | IC50 (nM) | Compound |
| --- | --- | --- |
| 0.218 | – | CC(C)[C@@H]1CN(c2ncc(-c3ccc(-c4cn[nH]c4)cc3O)nn2)C[C@H](C)N1 [Cpd 216, 2-{3-[(3S,5R)-3-methyl-5-(propan-2-yl)piperazin-1-yl]-1,2,4-triazin-6-yl]-5-(1H-pyrazol-4-yl)phenol] |
| 0.0052 | – | CC(C)[C@H]1CN(c2ncc(-c3ccc(-c4cnc5n4CCC5)cc3O)nn2)CCN1 [Cpd 279, 5-(6,7-dihydro-5H-pyrrolo[1,2-a]imidazol-3-yl)-2-{3-[(3S)-3-(propan-2-yl)piperazin-1-yl]-1,2,4-triazin-6-yl}phenol] |
| 0.292 | – | CC(C)[C@H]1CN(c2ncc(-c3ccc(-c4cnsn4)cc3O)nn2)CCN1 [Cpd 265, 2-{3-[(3S)-3-(propan-2-yl)piperazin-1-yl]-1,2,4-triazin-6-yl}-5-(1,2,5-thiadiazol-3-yl)phenol] |
| 0.0137 | – | COc1cc(-c2ccc(-c3cnc(N4C[C@@H](C)N[C@@H](C5CC5)C4)nn3)c(O)c2)nc(OC)n1 [Cpd 219, 2-{3-[(3S,5R)-3-cyclopropyl-5-methylpiperazin-1-yl]-1,2,4-triazin-6-yl}-5-(2,6-dimethoxypyrimidin-4-yl)phenol] |
| 0.0125 | – | [2H]C([2H])([2H])n1cc(-c2cc(O)c(-c3cnc(N4CCN[C@@H](C(C)(C)C)C4)nn3)cc2F)cn1 [Cpd 156, 2-{3-[(3S)-3-tert-butylpiperazin-1-yl]-1,2,4-triazin-6-yl}-4-fluoro-5-[1-(^2H3)methyl-1H-pyrazol-4-yl]phenol] |
| 0.0142 | – | Cc1nc2cnc(-c3ccc(-c4cnc(N5C[C@@H](C)N[C@@H](C)C5)nn4)c(O)c3)cn2n1 [Cpd 167, 2-{3-[(3R,5S)-3,5-dimethylpiperazin-1-yl]-1,2,4-triazin-6-yl}-5-(2-methyl[1,2,4]triazolo[1,5-a]pyrazin-6-yl)phenol] |
| 0.124 | – | C[C@H]1CN(c2ncc(-c3ccc(-c4cn[nH]c4)cc3O)nn2)CCN1 [Cpd 165, 2-{3-[(3S)-3-methylpiperazin-1-yl]-1,2,4-triazin-6-yl}-5-(1H-pyrazol-4-yl)phenol] |
| 0.0081 | – | COc1cc(-c2ccc(-c3cnc(N4C[C@@H](C)N[C@@H](C5CC5)C4)nn3)c(O)c2)ncn1 [Cpd 235, 2-{3-[(3S,5R)-3-cyclopropyl-5-methylpiperazin-1-yl]-1,2,4-triazin-6-yl}-5-(6-methoxypyrimidin-4-yl)phenol] |
| 0.0292 | – | CC(C)[C@H]1CN(c2ncc(-c3ccc(-c4ccns4)cc3O)nn2)CCN1 [Cpd 270, 2-{3-[(3S)-3-(propan-2-yl)piperazin-1-yl]-1,2,4-triazin-6-yl}-5-(1,2-thiazol-5-yl)phenol] |
| 0.0062 | – | Cn1cc2cc(-c3cnc(-c4cnc(N5CCN[C@@H](C6CC6)C5)nn4)c(O)c3)cc(F)c2n1 [Cpd 181, 2-{3-[(3S)-3-cyclopropylpiperazin-1-yl]-1,2,4-triazin-6-yl}-5-(7-fluoro-2-methyl-2H-indazol-5-yl)pyridin-3-ol] |
| 0.0124 | – | COc1cc(-c2ccc(-c3cnc(N4C[C@@H](C)N[C@@H](C5CC5)C4)nn3)c(O)c2)ccn1 [Cpd 256, 2-{3-[(3S,5R)-3-cyclopropyl-5-methylpiperazin-1-yl]-1,2,4-triazin-6-yl}-5-(2-methoxypyridin-4-yl)phenol] |
| 0.376 | – | Cc1cnsc1-c1ccc(-c2cnc(N3CCN[C@@H](C(C)C)C3)nn2)c(O)c1 [Cpd 253, 5-(4-methyl-1,2-thiazol-5-yl)-2-{3-[(3S)-3-(propan-2-yl)piperazin-1-yl]-1,2,4-triazin-6-yl}phenol] |
